From the supplement of paper PMC11061612

Experiments:
Experiment in all cases: combination Emax (second highest fraction inhibited in the dose matrix, 72 h); higher = more inhibition; extreme values may be limits of the assay
GAMG (Glioblastoma) = tested on: GAMG (Glioblastoma)
Procedure, shortened: (§1)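 After 24 hours at 37°C and 5% CO2 in 1536-well plates, cells in DMEM/F12 or RPMI plus 10% FBS received two-drug dose matrices for 72 hours. Viability came from CellTiter-Glo 2.0 luminescence and was scaled as inhibition, anchored at 0 by vehicle wells and at 1 by blank wells. Combination Emax is taken as the second-highest inhibition in the matrix, and Bliss excess as the observed combination effect less EA + EB − EA·EB, with EA and EB the single-agent effects.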

[1] = tested on: HeLa (Cervical Carcinoma)
Procedure, shortened: as §1

[2] = tested on: MHH-CALL-2 (B-Lymphoblastic Leukemia)
Procedure, shortened: as §1

[3] = tested on: FTC-133 (Thyroid Gland Carcinoma)
Procedure, shortened: as §1

[4] = tested on: Hs-746T (Gastric Carcinoma)
Procedure, shortened: as §1

BPH-1 (Non-Cancerous) = tested on: BPH-1 (Non-Cancerous)
Procedure, shortened: as §1

[5] = tested on: L-428 (Hodgkin's Lymphoma)
Procedure, shortened: as §1

[6] = tested on: BFTC-909 (Kidney Carcinoma)
Procedure, shortened: as §1

[7] = tested on: SAS (Oral Cavity Carcinoma)
Procedure, shortened: as §1

MPP-89 (Mesothelioma) = tested on: MPP-89 (Mesothelioma)
Procedure, shortened: as §1

[8] = tested on: Detroit562 (Head and Neck Carcinoma)
Procedure, shortened: as §1

[9] = tested on: NCI-H209 (Small Cell Lung Carcinoma)
Procedure, shortened: as §1

[10] = tested on: SW1573 (Lung Adenocarcinoma)
Procedure, shortened: as §1

BE2-M17 (Neuroblastoma) = tested on: BE2-M17 (Neuroblastoma)
Procedure, shortened: as §1

[11] = tested on: NUGC-4 (Gastric Carcinoma)
Procedure, shortened: as §1

[12] = tested on: CAL-33 (Oral Cavity Carcinoma)
Procedure, shortened: as §1

EW-11 (Ewing's Sarcoma) = tested on: EW-11 (Ewing's Sarcoma)
Procedure, shortened: as §1

[13] = tested on: KYAE-1 (Esophageal Adenocarcinoma)
Procedure, shortened: as §1

CAL-72 (Osteosarcoma) = tested on: CAL-72 (Osteosarcoma)
Procedure, shortened: as §1

[14] = tested on: KMRC-20 (Kidney Carcinoma)
Procedure, shortened: as §1

| SMILES | combination Emax (GAMG (Glioblastoma)) | combination Emax [1] | combination Emax [2] | combination Emax [3] | combination Emax [4] | combination Emax (BPH-1 (Non-Cancerous)) | combination Emax [5] | combination Emax [6] | combination Emax [7] | combination Emax (MPP-89 (Mesothelioma)) | combination Emax [8] | combination Emax [9] | combination Emax [10] | combination Emax (BE2-M17 (Neuroblastoma)) | combination Emax [11] | combination Emax [12] | combination Emax (EW-11 (Ewing's Sarcoma)) | combination Emax [13] | combination Emax (CAL-72 (Osteosarcoma)) | combination Emax [14] |
| --- | --- | --- | --- | --- | --- | --- | --- | --- | --- | --- | --- | --- | --- | --- | --- | --- | --- | --- | --- | --- |
| CC1(C)CCC(CN2CCN(c3ccc(C(=O)NS(=O)(=O)c4ccc(NCC5CCOCC5)c([N+](=O)[O-])c4)c(Oc4cnc5[nH]ccc5c4)c3)CC2)=C(c2ccc(Cl)cc2)C1 [Venetoclax] + COc1cc(Nc2ncc3c(n2)-c2ccc(Cl)cc2C(c2c(F)cccc2OC)=NC3)ccc1C(=O)O [Alisertib] (first compound max 1 µM, 7x7, partner max 10 µM) | 0.662 | 0.702 | 0.733 | 0.416 | 0.65 | 0.745 | 0.363 | 0.502 | 0.39 | 0.566 | 0.754 | 0.891 | 0.168 | 0.901 | 0.166 | 0.714 | 0.649 | 0.128 | 0.591 | 0.654 |
| CN(CCO)CC[C@H](CSc1ccccc1)Nc1ccc(S(=O)(=O)NC(=O)c2ccc(N3CCC([C@@H](O)c4ccccc4-c4ccc(Cl)cc4)CC3)cc2)cc1S(=O)(=O)C(F)(F)F [AZD4320] + C=CCn1c(=O)c2cnc(Nc3ccc(N4CCN(C)CC4)cc3)nc2n1-c1cccc(C(C)(C)O)n1 [AZD1775] (first compound max 1 µM, partner max 1 µM) | 0.643 | 0.722 | 0.739 | 0.919 | 0.738 | 0.709 | 0.983 | 0.905 | 0.647 | 0.628 | 0.684 | 1 | 0.698 | 0.92 | 0.374 | 0.859 | 0.949 | 0.843 | 0.782 | 0.61 |
| CC(=O)Nc1cccc(-n2c(=O)n(C3CC3)c(=O)c3c(Nc4ccc(I)cc4F)n(C)c(=O)c(C)c32)c1 [Trametinib] + Cc1nc(-c2cn3c(n2)-c2ccc(-c4cnn(C(C)(C)C(N)=O)c4)cc2OCC3)n(C(C)C)n1 [Taselisib] (first compound max 1 µM, 7x7, partner max 10 µM) | 0.783 | 0.42 | 0.662 | 0.338 | 0.606 | 0.94 | 0.204 | 0.781 | 0.882 | 0.796 | 0.954 | 0.218 | 0.407 | 0.994 | 0.554 | 0.989 | 0.676 | 0.893 | 0.85 | 0.593 |
| CC1(C)CCC(CN2CCN(c3ccc(C(=O)NS(=O)(=O)c4ccc(NCC5CCOCC5)c([N+](=O)[O-])c4)c(Oc4cnc5[nH]ccc5c4)c3)CC2)=C(c2ccc(Cl)cc2)C1 [Venetoclax] + CCN(CCO)CCCOc1ccc2c(Nc3cc(CC(=O)Nc4cccc(F)c4)[nH]n3)ncnc2c1 [AZD2811] (first compound max 1 µM, 7x7, partner max 1 µM) | 0.598 | 0.279 | 0.292 | 0.495 | 0.161 | 0.416 | 0.296 | 0.215 | 0.204 | 0.284 | 0.52 | 0.974 | 0.286 | 0.515 | 0.166 | 0.594 | 0.517 | 0.163 | 0.673 | 0.2 |
| CC1(C)CCC(CN2CCN(c3ccc(C(=O)NS(=O)(=O)c4ccc(NCC5CCOCC5)c([N+](=O)[O-])c4)c(Oc4cnc5[nH]ccc5c4)c3)CC2)=C(c2ccc(Cl)cc2)C1 [Venetoclax] + Cn1cnc2c(F)c(Nc3ccc(Br)cc3Cl)c(C(=O)NOCCO)cc21 [Selumetinib] (first compound max 1 µM, 7x7, partner max 3 µM) | 0.157 | 0.103 | 0.482 | 0.133 | 0.242 | 0.572 | 0.137 | 0.23 | 0.368 | 0.159 | 0.321 | 0.436 | 0.0752 | 0.635 | 0.499 | 0.266 | 0.451 | 0.0726 | 0.403 | 0.217 |
| Cc1c2c(nn1C)CSCc1cc(n(C)n1)CSc1cc(c3ccccc3c1)OCCCc1c(C(=O)O)n(C)c3c-2c(Cl)ccc13 [AZD5991] + CCN(CCO)CCCOc1ccc2c(Nc3cc(CC(=O)Nc4cccc(F)c4)[nH]n3)ncnc2c1 [AZD2811] (first compound max 1 µM, 7x7, partner max 1 µM) | 0.534 | 0.763 | 0.987 | 0.761 | 0.257 | 0.873 | 0.31 | 0.438 | 0.268 | 0.248 | 0.951 | 0.967 | 0.321 | 0.905 | 0.22 | 0.911 | 0.872 | 0.296 | 0.473 | 0.312 |
| COc1nnc2ccc(N3CCC(c4ccc(OCCN5CCN(C)C(=O)[C@H]5C)cc4)CC3)nn12 [AZD5153] + C[C@@H]1COCCN1C2=NC(=NC(=C2)C3(CC3)[S@](=N)(=O)C)C4=C5C=CNC5=NC=C4 [AZD6738] (first compound max 1 µM, 7x7, partner max 10 µM) | 0.682 | 0.589 | 0.932 | 0.782 | 0.63 | 0.831 | 0.929 | 0.876 | 0.921 | 0.604 | 0.919 | 0.908 | 0.557 | 0.92 | 0.652 | 0.839 | 0.692 | 0.263 | 0.784 | 0.775 |
| Cc1c2c(nn1C)CSCc1cc(n(C)n1)CSc1cc(c3ccccc3c1)OCCCc1c(C(=O)O)n(C)c3c-2c(Cl)ccc13 [AZD5991] + Cc1cc2ncnn2cc1Nc1ncc2c(n1)n(C1CCOCC1)c(=O)n2C [AZD7648] (first compound max 1 µM, 7x7, partner max 10 µM) | 0.382 | 0.485 | 1 | 0.649 | 0.319 | 0.409 | 0.251 | 0.292 | 0.286 | 0.343 | 0.422 | 0.431 | 0.19 | 0.9 | 0.279 | 0.302 | 0.837 | 0.194 | 0.523 | 0.295 |
| Cn1cnc2c(F)c(Nc3ccc(Br)cc3Cl)c(C(=O)NOCCO)cc21 [Selumetinib] + CC(C)n1c(=O)n(C)c2cnc3cc(F)c(-c4ccc(OCCCN5CCCCC5)nc4)cc3c21 [AZD1390] (first compound max 10 µM, 7x7, partner max 0.3 µM) | 0.151 | 0.0672 | 0.256 | 0.166 | 0.411 | 0.487 | 0.0975 | 0.184 | 0.408 | 0.0892 | 0.367 | 0.0904 | 0 | 0.508 | 0.481 | 0.755 | 0.103 | 0.144 | 0.165 | 0.131 |
| COc1nnc2ccc(N3CCC(c4ccc(OCCN5CCN(C)C(=O)[C@H]5C)cc4)CC3)nn12 [AZD5153] + Cn1cnc2c(F)c(Nc3ccc(Br)cc3Cl)c(C(=O)NOCCO)cc21 [Selumetinib] (first compound max 1 µM, 7x7, partner max 10 µM) | 0.527 | 0.411 | 0.432 | 0.592 | 0.731 | 0.87 | 0.784 | 0.488 | 0.86 | 0.554 | 0.792 | 0.508 | 0.577 | 0.825 | 0.831 | 0.708 | 0.424 | 0.116 | 0.389 | 0.414 |
| NC1(C(=O)N[C@@H](CCO)c2ccc(Cl)cc2)CCN(c2ncnc3[nH]ccc23)CC1 [Capivasertib] + CCN(CCO)CCCOc1ccc2c(Nc3cc(CC(=O)Nc4cccc(F)c4)[nH]n3)ncnc2c1 [AZD2811] (first compound max 10 µM, 7x7, partner max 1 µM) | 0.669 | 0.23 | 0.532 | 0.643 | 0.403 | 0.587 | 0.302 | 0.638 | 0.299 | 0.435 | 0.892 | 0.428 | 0.374 | 0.493 | 0.0827 | 0.897 | 0.611 | 0.156 | 0.321 | 0.398 |
